Test results from PubChem BioAssay AID463199 (Broad Institute, 2010).
Calls of active or inactive are those of the source.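 Rule for the calls: active = AC50, the dose giving half-maximal effect, exceeds a fixed cutoff for a compound that rescues yeast growth under heat; inactive = the rest, inconclusive results apart.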

What follows are compounds tested on S. cerevisiae Burl-1 ts mutant growth, BacTiter-Glo, 38.5C 24 h (assay: restored growth of temperature-sensitive Burl-1 yeast – whole organism, S. cerevisiae, Burl-1 ts mutant, luminescence, counter-screen for SUMOylation pathway inhibitor project, dose response (AID 463199)).

| Structure (SMILES) | AC50 |
| --- | --- |
| CCCOc1ccccc1C1NC(=O)NC(C)=C1C(=O)OCc1ccccc1 (stereo not given) | > 42 µM (inactive) |
| CC(=O)c1ccc2noc(-c3ccc(F)cc3)c2c1 | > 42 µM (inactive) |
| COc1ccc(C2C(C(=O)Nc3cc(OC)c(OC)c(OC)c3)c3ccccc3C(=O)N2C)cc1 (stereo not given) | > 42 µM (inactive) |
| Cc1ccc(S(=O)(=O)Oc2ccc(/C=C3\N=C(c4cccc(C)c4)OC3=O)cc2)cc1 | > 42 µM (inactive) |
| CCOc1ccc(CN(C)C(C)C(=O)NCc2ccccc2)cc1 (stereo not given) | > 42 µM (inactive) |
| CCc1nn(C)c(N)c1C | > 42 µM (inactive) |
| CSc1ccccc1NC(=O)COc1nsnc1N1CCOCC1 | > 42 µM (inactive) |
| COc1ccc(OC(=O)c2ccc(Cl)cc2)c(C(C)=O)c1 | > 42 µM (inactive) |
| COc1cc2c(=O)n(-c3ccc(C)cc3)c(=O)n(CC(=O)c3ccc4c(c3)OCO4)c2cc1OC | > 42 µM (inactive) |
| COc1ccc(N2CCN(C3CCCN(Cc4cccc(OC)c4)C3)CC2)cc1 (stereo not given) | > 42 µM (inactive) |
| COc1ccc(OCC(=O)Nc2ccc(C)cc2)cc1 | > 42 µM (inactive) |
| COC(=O)c1cc(Cl)c(NC(=O)C(C)C)cc1OC | > 42 µM (inactive) |
| COc1cc(CN2CCC(Oc3cc(C(=O)NC4CC4)ccc3OC)CC2)cc(OC)c1 | 16.9 µM |
| COc1ccc(N2C(=O)CCC(C(=O)NCc3cccnc3)C2c2ccc(OC)c(OC)c2)cc1 (stereo not given) | > 42 µM (inactive) |
| Cc1csc(CNc2ncnc3ccc(-c4ccccc4Cl)cc23)c1 | > 42 µM (inactive) |
| C[C@H]1CN=C(Nc2ccccc2)N1CCC1CCCC1 | > 42 µM (inactive) |
| Cc1ccc(-c2csc(NC(=O)CSc3nc(C)cs3)n2)cc1 | > 42 µM (inactive) |
| Cc1cccc(OCc2nnc(SCC(=O)O)n2-c2ccccc2)c1 | > 42 µM (inactive) |
| O=C1N=C(N2CCOCC2)S/C1=C\c1cccnc1 | > 42 µM (inactive) |
| CCOC(=O)N1CCN(C(=O)c2ccc(CS(=O)(=O)c3c(Cl)cccc3Cl)o2)CC1 | > 42 µM (inactive) |
| Cc1nnc(SCC(=O)NCc2ccccc2Cl)[nH]c1=O | > 42 µM (inactive) |
| CS(=O)(=O)c1ccc(Cl)c(C(=O)O)c1 | > 42 µM (inactive) |
| CCCCn1c(/C=N/Nc2nc3ccccc3[nH]2)nc2ccccc21 | > 42 µM (inactive) |
| CC(=O)N1N=C(N)SC12CCCC2 | > 42 µM (inactive) |
| O=C(CSc1nc2ccc(Cl)cc2[nH]1)NCc1ccco1 | > 42 µM (inactive) |

| Structure (SMILES) | AC50 |
| --- | --- |
| Cc1cccc(C(=O)NCC(=O)N2CCN(c3ccc(Cl)cc3)CC2)c1 | > 42 µM (inactive) |
| COc1cccc(OC)c1C(=O)Nc1ccc2c(c1)N(S(=O)(=O)c1cccs1)CCC2 | > 42 µM (inactive) |
| CC(CN1CCCCCC1)C(=O)NN (stereo not given) | > 42 µM (inactive) |
| CCCCCCCCc1nc(SCC(C)=O)n[nH]1 | > 42 µM (inactive) |
| CCOC(=O)Cn1c(=O)oc2cc(S(=O)(=O)NC(C)(C)CC)ccc21 | > 42 µM (inactive) |
| O=C(OCC#CCSc1nnc(-c2ccccc2)o1)c1cc2ccccc2o1 | > 42 µM (inactive) |
| O=C(CC1(CC2=NS(=O)(=O)c3ccccc3N2)CCCC1)NCCc1ccccc1 | > 42 µM (inactive) |
| COc1ccc(/C=C/C(=O)N2CCC(C(N)=O)CC2)cc1S(=O)(=O)N1CCOCC1 | > 42 µM (inactive) |
| Cc1ccc(C)c(S(=O)(=O)n2cnc3ccccc32)c1 | > 42 µM (inactive) |
| CCc1cc2c(=O)c(-c3nc4ccccc4[nH]3)coc2c(CN2CCCCC2)c1O | > 42 µM (inactive) |
| COCCn1c(C)cc(C(=O)CN2C(=O)NC3(CCCCCCC3)C2=O)c1C | > 42 µM (inactive) |
| CC(C)C(=O)NNc1ccc(C(F)(F)F)cn1 | > 42 µM (inactive) |
| Cc1cc(NC(=O)CSc2ncn(-c3ccccc3)n2)no1 | > 42 µM (inactive) |
| Cc1sc(NC(=O)c2ccco2)c(C(c2ccc(F)cc2)N2CCN(C)CC2)c1C (stereo not given) | > 42 µM (inactive) |
| CCOC(=O)C1CCN(CC(O)COCc2ccccc2)CC1 (stereo not given) | > 42 µM (inactive) |
| COc1ccc(Cl)cc1C(=O)NCCc1ccc(S(=O)(=O)NC(=O)NC2CCCCC2)cc1 | > 42 µM (inactive) |
| O=C(N1CCOCC1)C1(S(=O)(=O)c2ccccc2)CC=CC1 | > 42 µM (inactive) |
| O=C(NCc1ccccn1)C1CC(c2ccc(Cl)c(Cl)c2)=NO1 (stereo not given) | > 42 µM (inactive) |
| Cc1ccc(NC(=S)N2CCN(Cc3ccc4c(c3)OCO4)CC2)c(C)c1 | > 42 µM (inactive) |
| COc1cc2c(cc1OC)C(c1ccccc1[N+](=O)[O-])N(C(C)=O)CC2 (stereo not given) | > 42 µM (inactive) |
| CCOC(=O)c1ccccc1NC(=O)C1CC(=O)N(C2CCCCC2)C1 (stereo not given) | > 42 µM (inactive) |
| CCOC(=O)C1C(=O)NC(SCC(=O)Nc2nccs2)=C(C#N)C1c1ccccc1OCC (stereo not given) | > 42 µM (inactive) |
| CN/C(=C/[N+](=O)[O-])NCCSCc1ccc(CN(C)C)o1 | > 42 µM (inactive) |
| COc1ccccc1C(=O)NCCNc1ccc([N+](=O)[O-])cc1Cl | > 42 µM (inactive) |
| CN(C)S(=O)(=O)c1ccc(Cl)c(NC(=O)CN2C(=O)NC(C)(C3CC3)C2=O)c1 (stereo not given) | > 42 µM (inactive) |

| Structure (SMILES) | AC50 |
| --- | --- |
| Cc1ccc(/C=C2\SC(N3CCCC3)=NC2=O)cc1 | > 42 µM (inactive) |
| Nc1cc(C(=O)OCC(=O)N2CCOCC2)ccc1Cl | > 42 µM (inactive) |
| COc1ccc(CN(C)S(=O)(=O)c2nnc(NC(=O)c3ccc(C)cc3)s2)cc1OC | > 42 µM (inactive) |
| COc1ccc(S(=O)(=O)N2CCCC2CNC(=O)C(=O)NCc2ccccn2)cc1 (stereo not given) | > 42 µM (inactive) |
| CC(C)c1cccc(OCCCCN(C)C)c1 | > 42 µM (inactive) |
| NC(=O)c1cccc2cc3ccccc3cc12 | > 42 µM (inactive) |
| COc1ccc(S(=O)(=O)NCC(=O)N(CC(=O)NCC2CCCO2)c2ccccc2C)cc1 (stereo not given) | > 42 µM (inactive) |
| Nc1nnc(COc2ccc(Br)cc2Br)s1 | > 42 µM (inactive) |
| COc1cc(O)oc1C=Nc1ccc(C(=O)O)cc1 | > 42 µM (inactive) |
| Cc1ccc(C(=O)Nc2nc(-c3ccc(F)cc3)cs2)o1 | > 42 µM (inactive) |
| CS(=O)(=O)N(CC(=O)Nc1ccccc1C(=O)N1CCCC1)c1ccc2c(c1)OCO2 | > 42 µM (inactive) |
| NN1C(=O)NC(c2ccccc2)(c2ccccc2)C1=O | > 42 µM (inactive) |
| O=C(c1cccnc1)N1CCCC(Nc2ccc(F)cc2)C1 (stereo not given) | > 42 µM (inactive) |
| COC(=O)c1c(C)n(Cc2ccc3c(c2)OCO3)c2ccc(O)cc12 | > 42 µM (inactive) |
| Cc1sc(NC(=O)CSC2=NCCS2)nc1-c1ccccc1 | > 42 µM (inactive) |
| COc1ccc(NC(=O)CCC(=O)Nc2nnc(C(F)(F)F)s2)c(OC)c1 | > 42 µM (inactive) |
| Cc1ccc(S(=O)(=O)N[C@@H](Cc2ccccc2)C(=O)CCl)cc1 | > 42 µM (inactive) |
| O=C1C2CCCCN2C(=O)N1CCCCN1CCN(c2ccccc2Oc2ccccc2)CC1 (stereo not given) | > 42 µM (inactive) |
| CCCCNC(=O)N1CCC(CCC(=O)N(C)Cc2ccccc2)CC1 | > 42 µM (inactive) |
| CC(=O)Oc1cccc(N2C(=O)c3ccc(C(=O)Nc4c[nH]c(=O)[nH]c4=O)cc3C2=O)c1 | > 42 µM (inactive) |
| O=C(CSc1nc(=O)n2ccccc2n1)N1CCN(c2ccccc2)CC1 | > 42 µM (inactive) |
| C=CCOc1ccccc1CN1CCCC(CCC(=O)N(C)CCc2ccccn2)C1 (stereo not given) | > 21 µM (inactive) |
| COc1ccc(-c2nnc(-c3cc4c(ccc5ccccc54)oc3=O)o2)cc1 | > 42 µM (inactive) |
| O=C(Nc1ccsc1C(=O)O)c1cccc(C(F)(F)F)c1 | > 42 µM (inactive) |
| O=C(NCCCn1ccnc1)c1ccc(Cl)cc1 | > 42 µM (inactive) |

| Structure (SMILES) | AC50 |
| --- | --- |
| COCCNC(=O)C(c1ccc(C)cc1)N(C(=O)CCC(=O)Nc1ccccn1)c1cccc(C)c1 (stereo not given) | > 42 µM (inactive) |
| O=C(Cn1nc(C(F)(F)F)c2c1CCCC2)N1CCOCC1 | > 42 µM (inactive) |
| Cc1ccc(N=c2ssnc2Cl)cc1 | > 42 µM (inactive) |
| O=[N+]([O-])c1ccc(N/N=C/c2cccc(O)c2)cc1 | > 42 µM (inactive) |
| CN(Cc1ccccc1)c1ccc(S(=O)(=O)N2CCC(C(=O)O)CC2)cc1[N+](=O)[O-] | > 42 µM (inactive) |
| COc1ccc(NC(=O)CN(C)C(=O)c2cc(C)on2)cc1 | > 42 µM (inactive) |
| COC(=O)c1ccc2[nH]c(C(C)(C)O)c(C)c2c1 | > 42 µM (inactive) |
| CCC(=O)N1CCc2cc(S(=O)(=O)CCC(=O)Nc3cccc(C)n3)ccc21 | > 42 µM (inactive) |
| O=C1CN(C(=O)c2ccccc2F)C(c2ccccc2)c2cc(Cl)ccc2N1 (stereo not given) | > 42 µM (inactive) |
| COc1ccc2cc(C(=O)Nc3ccc(Cl)cc3)sc(=O)c2c1OC | > 42 µM (inactive) |
| Cc1ccc(S(=O)(=O)NCc2ccc(C(=O)N3CCN(c4ccccn4)CC3)cc2)cc1 | > 42 µM (inactive) |
| CS(=O)(=O)N(CC(=O)NCCSCc1ccccc1)c1ccc2c(c1)OCO2 | > 42 µM (inactive) |
| O=C(c1cnn2c(C(F)(F)F)cc(-c3ccco3)nc12)N1CCCc2ccccc21 | > 42 µM (inactive) |
| C/C(CC(=O)Nc1cccc(Cl)c1Cl)=N\NC(=O)c1ccccc1C | > 42 µM (inactive) |
| CCn1cnc2sc(-c3ccccc3)cc2c1=O | > 42 µM (inactive) |
| Cc1c(N=Cc2cc(Br)cc(Br)c2O)cccc1C(=O)O | > 42 µM (inactive) |
| COc1ccc2nc(SCC(=O)N(C)CC(=O)Nc3ccc(F)cc3)[nH]c2c1 | > 42 µM (inactive) |
| Cn1c(-c2sc3cc(C(F)(F)F)cnc3c2-c2cccs2)n[nH]c1=S | > 42 µM (inactive) |
| CCOC(=O)N1CCN(S(=O)(=O)c2ccc(C)c(C)c2)CC1 | > 42 µM (inactive) |
| CC(C)(C)n1cnc2cc(NC(=O)c3ccc(Cl)cc3)ccc21 | > 42 µM (inactive) |
| COc1ccccc1NC(=O)NCCc1c[nH]c2ccccc12 | > 42 µM (inactive) |
| CCc1c(C(=O)N2CCN(c3ccccc3F)CC2)[nH]c(C)c1C(C)=O | > 42 µM (inactive) |
| COc1cccc(C2C(C(C)=O)=C(O)C(=O)N2CCc2c[nH]c3ccccc23)c1 (stereo not given) | > 42 µM (inactive) |
| Cc1sc2ncn(C(C)C(=O)OC3CCCCC3)c(=O)c2c1C (stereo not given) | > 42 µM (inactive) |
| Nc1nc(-c2ccc(Cl)cc2)nc(-c2ccc(Cl)cc2)n1 | > 42 µM (inactive) |
